# Assay results from PubChem BioAssay (NCI).
#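 Abbreviation: GI50, concentration required for 50% inhibition of growth. TGI denotes the concentration required for complete inhibition of growth.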
# Assays:
# Test in all cases: growth of human tumour cells (NCI), 384-well format
# 786-0 renal = tested on: 786-0 renal
# A498 renal = tested on: A498 renal
# A549 NSCLC = tested on: A549 NSCLC
# ACHN renal = tested on: ACHN renal
# BT-549 breast = tested on: BT-549 breast
# CAKI-1 renal = tested on: CAKI-1 renal
# CCRF-CEM leukemia = tested on: CCRF-CEM leukemia
# DU-145 prostate = tested on: DU-145 prostate
# EKVX NSCLC = tested on: EKVX NSCLC
# HCC-2998 colon = tested on: HCC-2998 colon
# HCT-116 colon = tested on: HCT-116 colon
# HCT-15 colon = tested on: HCT-15 colon
# HOP-62 NSCLC = tested on: HOP-62 NSCLC
# HS 578T breast = tested on: HS 578T breast
# IGROV1 ovarian = tested on: IGROV1 ovarian
# K-562 leukemia = tested on: K-562 leukemia
# KM12 colon = tested on: KM12 colon
# LOX IMVI melanoma = tested on: LOX IMVI melanoma
# M14 melanoma = tested on: M14 melanoma
# MALME-3M melanoma = tested on: MALME-3M melanoma
# MCF7 breast = tested on: MCF7 breast
# MDA-MB-231 breast = tested on: MDA-MB-231 breast
# MDA-MB-435 melanoma = tested on: MDA-MB-435 melanoma
# MDA-MB-468 breast = tested on: MDA-MB-468 breast
# MOLT-4 leukemia = tested on: MOLT-4 leukemia
# NCI-H226 lung = tested on: NCI-H226 lung
# NCI-H23 lung = tested on: NCI-H23 lung
# NCI-H322M lung = tested on: NCI-H322M lung
# NCI-H460 NSCLC = tested on: NCI-H460 NSCLC
# NCI/ADR-RES ovarian = tested on: NCI/ADR-RES ovarian
# OVCAR-3 ovarian = tested on: OVCAR-3 ovarian
# OVCAR-5 ovarian = tested on: OVCAR-5 ovarian
# OVCAR-8 ovarian = tested on: OVCAR-8 ovarian
# PC-3 prostate = tested on: PC-3 prostate
# RXF 393 renal = tested on: RXF 393 renal
# SF-268 CNS = tested on: SF-268 CNS
# SF-539 CNS = tested on: SF-539 CNS
# SK-MEL-2 melanoma = tested on: SK-MEL-2 melanoma
# SK-MEL-28 melanoma = tested on: SK-MEL-28 melanoma
# SK-OV-3 ovarian = tested on: SK-OV-3 ovarian
# SNB-19 CNS = tested on: SNB-19 CNS
# SNB-75 CNS = tested on: SNB-75 CNS
# SR leukemia = tested on: SR leukemia
# SW-620 colon = tested on: SW-620 colon
# T-47D breast = tested on: T-47D breast
# UACC-257 melanoma = tested on: UACC-257 melanoma
# UACC-62 melanoma = tested on: UACC-62 melanoma
compound,measurement,setting,value
NC(=O)[C@@H](CC1CC1)[C@@H](CCC(F)(F)F)C(=O)N[C@H]1N=C(c2ccccc2)c2cccc(F)c2NC1=O,GI50,786-0 renal,20.3 µM
same,TGI,786-0 renal,> 67.6 µM
same,GI50,A498 renal,15 µM
same,TGI,A498 renal,43 µM
same,GI50,A549 NSCLC,15.7 µM
same,TGI,A549 NSCLC,49.4 µM
same,GI50,ACHN renal,20.8 µM
same,TGI,ACHN renal,> 64.5 µM
same,GI50,BT-549 breast,17.8 µM
same,TGI,BT-549 breast,35.2 µM
same,GI50,CAKI-1 renal,15 µM
same,TGI,CAKI-1 renal,36.8 µM
same,GI50,CCRF-CEM leukemia,9.79 µM
same,TGI,CCRF-CEM leukemia,> 64.3 µM
same,GI50,DU-145 prostate,23.7 µM
same,TGI,DU-145 prostate,66.6 µM
same,GI50,EKVX NSCLC,7.61 µM
same,TGI,EKVX NSCLC,32 µM
same,GI50,HCC-2998 colon,23.8 µM
same,TGI,HCC-2998 colon,84.3 µM
same,GI50,HCT-116 colon,10.5 µM
same,TGI,HCT-116 colon,26.1 µM
same,GI50,HCT-15 colon,> 65.9 µM
same,TGI,HCT-15 colon,> 100 µM
same,GI50,HOP-62 NSCLC,8.29 µM
same,TGI,HOP-62 NSCLC,25 µM
same,GI50,HS 578T breast,11.3 µM
same,TGI,HS 578T breast,25.5 µM
same,GI50,IGROV1 ovarian,16.1 µM
same,TGI,IGROV1 ovarian,40.4 µM
same,GI50,K-562 leukemia,7.18 µM
same,TGI,K-562 leukemia,62.6 µM
same,GI50,KM12 colon,> 51.9 µM
same,TGI,KM12 colon,> 100 µM
same,GI50,LOX IMVI melanoma,11.7 µM
same,TGI,LOX IMVI melanoma,38.4 µM
same,GI50,M14 melanoma,18.5 µM
same,TGI,M14 melanoma,43.3 µM
same,GI50,MALME-3M melanoma,14.8 µM
same,TGI,MALME-3M melanoma,28.2 µM
same,GI50,MCF7 breast,14.6 µM
same,TGI,MCF7 breast,29.1 µM
same,GI50,MDA-MB-231 breast,14.4 µM
same,TGI,MDA-MB-231 breast,28 µM
same,GI50,MDA-MB-435 melanoma,19.2 µM
same,TGI,MDA-MB-435 melanoma,43.7 µM
same,TGI,MDA-MB-468 breast,2.52 µM
same,GI50,MOLT-4 leukemia,7.38 µM
same,TGI,MOLT-4 leukemia,35 µM
same,GI50,NCI-H226 lung,16.5 µM
same,TGI,NCI-H226 lung,30.5 µM
same,GI50,NCI-H23 lung,9.77 µM
same,TGI,NCI-H23 lung,30 µM
same,GI50,NCI-H322M lung,12.4 µM
same,TGI,NCI-H322M lung,40.6 µM
same,GI50,NCI-H460 NSCLC,11.6 µM
same,TGI,NCI-H460 NSCLC,> 48.4 µM
same,GI50,NCI/ADR-RES ovarian,> 86.4 µM
same,TGI,NCI/ADR-RES ovarian,> 100 µM
same,GI50,OVCAR-3 ovarian,14.4 µM
same,TGI,OVCAR-3 ovarian,29 µM
same,GI50,OVCAR-5 ovarian,18.5 µM
same,TGI,OVCAR-5 ovarian,47.1 µM
same,GI50,OVCAR-8 ovarian,16 µM
same,TGI,OVCAR-8 ovarian,33.5 µM
same,GI50,PC-3 prostate,17.6 µM
same,TGI,PC-3 prostate,34.2 µM
same,GI50,RXF 393 renal,7.3 µM
same,TGI,RXF 393 renal,22.6 µM
same,GI50,SF-268 CNS,7.01 µM
same,TGI,SF-268 CNS,24.3 µM
same,GI50,SF-539 CNS,15.4 µM
same,TGI,SF-539 CNS,29 µM
same,GI50,SK-MEL-2 melanoma,19.7 µM
same,TGI,SK-MEL-2 melanoma,35.2 µM
same,GI50,SK-MEL-28 melanoma,17.8 µM
same,TGI,SK-MEL-28 melanoma,33.2 µM
same,GI50,SK-OV-3 ovarian,14.9 µM
same,TGI,SK-OV-3 ovarian,28.5 µM
same,GI50,SNB-19 CNS,14.7 µM
same,TGI,SNB-19 CNS,28.9 µM
same,GI50,SNB-75 CNS,10.7 µM
same,TGI,SNB-75 CNS,25.4 µM
same,GI50,SR leukemia,13.9 µM
same,TGI,SR leukemia,27.1 µM
same,GI50,SW-620 colon,17.7 µM
same,TGI,SW-620 colon,35.1 µM
same,GI50,T-47D breast,1.94 µM
same,TGI,T-47D breast,17.7 µM
same,GI50,UACC-257 melanoma,5.76 µM
same,TGI,UACC-257 melanoma,24.6 µM
same,GI50,UACC-62 melanoma,14.7 µM
same,TGI,UACC-62 melanoma,28.7 µM
